From US20170121295A1, “POLYCYCLIC LPA1 ANTAGONIST AND USES THEREOF” (AMIRA PHARMACEUTICALS, INC., priority 2010, published 2017) come the findings set out here.

The target in one data set is T1, Human LPA1 (Homo sapiens, UniProt Q92633).
T1 construct: the full-length cDNA for human LPA1 was obtained by PCR of the reverse transcription reaction; expressed in transfected cells
In words: LPA1 Calcium Flux Assay. The format is cell-based. To be noted: human LPA1 expressing CHO cells, 10 nM LPA; read-out: Ca Flux IC50 LPA1. The method, then: A 1.1 kb cDNA encoding the human LPA1 receptor was cloned from human lung. Human lung RNA (Clontech Laboratories, Inc. USA) was reverse transcribed using the RETROscript kit (Ambion, Inc.) and the full-length cDNA for human LPA1 was obtained by PCR of the reverse transcription reaction. The nucleotide sequence of the cloned human LPA1 was determined by sequencing and confirmed to be identical to the published human LPA1 sequence (An et al. Biochem. Biophys. Res. Commun. 231:619 (1997). The cDNA was cloned into the pCDNA5/FRT expression plasmid and transfected in CHO cells using lipofectamine 2000 (Invitrogen Corp., USA). Clones stably expressing human LPA1 were selected using hygromycin and identified as cells that show Ca-influx in response to LPA.
Human LPA1 or LPA3 expressing CHO cells are seeded at 20,000-45,000 cells per well in a 96-well poly-D-lysine coated plate one or two days before the assay. Prior to the assay, the cells are washed once with PBS and then cultured in serum-free media overnight. On the day of the assay, a calcium indicator dye (Calcium 4, Molecular Devices) in assay buffer (HBSS with Ca^2+ and Mg^2+ and containing 20 mM Hepes and 0.3% fatty-acid free human serum albumin) is added to each well and incubation continued for 1 hour at 37° C. 10 μl of test compound in 2.5% DMSO are added to the cells and incubation continued at room temperature for 30 minutes. Cells are the stimulated by the addition of 10 nM LPA and intracellular Ca^2+ measured using the Flexstation 3 (Molecular Devices). IC50s are determined using Graphpad prism analysis of drug titration curves.
In general terms: A change in cytosolic calcium serves as a functional read-out for many receptors and channels.

Data set [1] can be described thus: Metabolite identification in liver microsomes. The format is in vitro ADME, rat, dog, monkey, human. To be noted: human microsomes. On the procedure: To determine the qualitative metabolic profile, 30 μM of Compound 1 was incubated aerobically with rat, dog, monkey, or human liver microsomes (1 mg/mL). The incubations were performed in phosphate buffer at pH 7.4, 37° C., with the reaction initiated by the addition of P-NADPH, GSH and/or UDPGA (1, 5 and 2 mM final concentration, respectively). The reaction was terminated by the addition of 3 times incubation volume of acetonitrile after 60 minutes. The sample was centrifuged and the supernatant was transferred, nitrogen blow dried and reconstituted in 50% acetonitrile in water for LC/MS analysis.
LC/MS/MS analysis was carried out with a Sciex API-4000Qtrap tandem mass spectrometer (Applied Biosystems/Life Technologies, Carlsbad, Calif.) interfaced to a high-performance liquid chromatography system consisting of an Agilent 1200 series pump (Foster City, Calif.) and a LEAP Technologies PAL autoinjector (Carrboro, N.C.).
Parent/metabolite analysis was conducted in the positive ion mode (ESI) by multiple reaction monitoring of parent. The mobile phases contained 10 mM ammonium acetate in water with 0.05% formic acid (solvent A) and 10 mM ammonium acetate in 50% acetonitrile/50% methanol with 0.05% formic acid (solvent B). For Compound 1, the flow rate was maintained at 1 mL/min and the total run time was 2.5 min. Analytes were separated on a YMC ODS-AQ column (2.1×150 mm; 3 μm) and eluted with a linear gradient as follows: • 1. mobile phase was held for 0.5 min at 5% B, • 2. B was increased from 5% to 95% over the next 0.2 min, • 3. B was held constant for 1.3 min at 95%, and • 4. B was returned to the initial gradient conditions.
GSH adducts were investigated in microsomes, hepatocytes and rat bile using several methods including the neutral loss of pyroglutamate (129 Da) as well as a precursor ion scans of Compound 1 (105 Da, 318 Da and 438 Da).
For metabolite quantitation, the flow rate was maintained at 0.25 mL/min and the total run time was 60 min. Analytes were separated using a linear gradient as follows: • 1. mobile phase was held for 5 min at 5% B, • 2. […]
On the technique in general: Microsomes from liver hold many membrane-bound enzymes, among them those of drug oxidation.

The nature of data set [2]: Solubility in a range of solvents (crystallisation experiments). The data set is classed as physicochemical. The note with it: organic solvents; water, cyclohexane, heptane unsuitable. On the procedure: 20 mg of Compound 1 was weighed into a HPLC vial. 40 μL of ethanol was added and the vial was heated to reflux with a hot air gun. The solution was cooled to ambient temperature and the solids were filtered off. Crystalline Compound 1 (Pattern 1) was obtained as determined by XRPD. In the same manner as described from ethanol, the following solvents also provided crystalline Compound 1 (Pattern 1): methanol, 2-methoxyethanol, ethanol, 1-propanol, 2-propanol, 1-butanol, butyl acetate, acetone, methylethyl ketone, anisole, toluene. 5 Volumes (i.e. 100 μL) of the following solvents with heating also provided crystalline Compound 1 (Pattern 1): nitromethane, acetonitrile, ethyl acetate, cumene.
Compound 1 dissolved in 2 volumes (i.e. 40 μL) of the following solvents at ambient temperature: 1-4-dioxane, tetrahydrofuran. The vials were uncapped and allowed to slowly evaporate. This provided crystalline Compound 1 (Pattern 1).

Data set [3] concerns human A2058 melanoma cells. In words: LPA1 Chemotaxis Assay. The note with it: 100 nM LPA, read-out: IC50, LPA-driven chemotaxis. The data set is classed as cell-based. The method, then:
Chemotaxis of the A2058 human melanoma cells was measured using the Neuroprobe ChemoTx® System plates (8 μm pore size, 5.7 mm diameter sites). The filter sites were coated with 0.001% fibronectin (Sigma) in 20 mM Hepes, pH 7.4 and allowed to dry. A2058 cells were serum-starved for 24 hours, then harvested with Cell Stripper and resuspended in DMEM containing 0.1% fatty-acid-free bovine serum albumin (BSA) to a concentration of 1×10^6/ml. Cells were mixed with an equal volume of test compound (2×) in DMEM containing 0.1% fatty-acid-free BSA and incubated at 37° C. for 15 minutes. LPA (100 nM in DMEM containing 0.1% fatty-acid-free BSA) or vehicle was added to each well of the lower chamber and 50 μl of the cell suspension/test compound mix was applied to the upper portion of the ChemoTx plate. Plates were incubated at 37° C. for three hours and then the cells removed from the upper portion by rinsing with PBS and scraping. The filter was dried then stained with HEMA 3 Staining System (Fisher Scientific). The absorbance of the filter was read at 590 nm and IC50s were determined using Symyx Assay Explorer.

T1 sequence (Q92633 whole entry): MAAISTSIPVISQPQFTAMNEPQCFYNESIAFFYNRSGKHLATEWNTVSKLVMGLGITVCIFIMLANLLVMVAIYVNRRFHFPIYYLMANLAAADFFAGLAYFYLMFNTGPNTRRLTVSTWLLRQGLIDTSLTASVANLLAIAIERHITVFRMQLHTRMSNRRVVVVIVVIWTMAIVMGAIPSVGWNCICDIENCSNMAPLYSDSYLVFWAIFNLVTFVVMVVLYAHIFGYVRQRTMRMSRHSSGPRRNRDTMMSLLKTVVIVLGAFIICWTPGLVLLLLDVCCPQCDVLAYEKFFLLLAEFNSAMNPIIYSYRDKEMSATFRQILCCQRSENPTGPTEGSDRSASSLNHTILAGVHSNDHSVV

On to `Cc1noc(-c2ccc(-c3ccc(C4(C(=O)O)CC4)cc3)cc2)c1NC(=O)O[C@H](C)c1ccccc1` [Compound 1, 1-{4′-[3-methyl-4-((R)-1-phenyl-ethoxycarbonylamino)-isoxazol-5-yl]-biphenyl-4-yl}-cyclopropanecarboxylic acid], for which the figures for the concentration for half-maximal inhibition (IC50) (on Human LPA1; in data set [3]) were < 200 nM and < 100 nM, respectively. In addition, in data set [1], the “GSH adduct in microsomes” value was “No GSH adduct was observed”. For the same compound, in data set [2], the “solubility in a range of solvents” value is recorded as “good solubility in a range of solvents”.

For orientation: IC50 means the concentration at which inhibition is half-maximal.
